Laboratory results published in US12053467B2, “Method of treating fibrosis” (NovMeta Pharma Co., Ltd., priority 2020, dated 2024).

Tests used:
[1] = system: α-smooth muscle actin (aSMA); assay: αSMA mRNA (real-time PCR) in bleomycin-induced pulmonary fibrosis mice; type: in vivo, ICR mice; settings: lung, 5, 25, 50 and 100 mg/kg/day oral, daily for 4 weeks, vs BLM alone (set 1.0)
Experimental: (§1) Seven-week-old male ICR mice from Koatech Co. Ltd (Gyeonggi-do, Korea). All animal experiments were approved by the Ethics Review Committee of the Advanced Bio Convergence Center, Republic of Korea. Mice were housed in specific pathogen-free conditions with a 12 hr light-dark cycle and had free access to water and food. Body weight and caloric intake were monitored throughout the experiments. The mice were housed in single cage and food intake was calculated of each animals in the cage. 5 or 25 or 50 or 100 mg/kg/day CHP monohydrate, 5 mg/kg/day CHP+10 mg/kg/day Zn, or PBS (vehicle control), was orally administered daily for 4 weeks. At the conclusion of the in vivo experiment, the mice were sacrificed and tissues were collected and weighed. Tissue samples were stored at −80° C. until analysis.
(§2) Mice maintained under anesthesia with isoflurane were intravenously administered bleomycin 75 mg/kg in saline. […]
(§3) Total RNA was prepared by an RNeasy Mini kit (QIAGEN) according to the manufacturer's instructions. RNA integrity was assessed by an automated microfluidics-based system (Bioanalyzer 2100, Agilent, Palo Alto, CA, USA). […] A melt curve was produced to confirm a single gene-specific peak and detect primer/dimer formation by heating the samples from 65 to 95° C. in 0.5° C. increments with a dwell time at each temperature of 10 sec while continuously monitoring fluorescence. […]

[2] = system: Collagen 1 (Col1); assay: Col1 mRNA (real-time PCR) in bleomycin-induced pulmonary fibrosis mice; type: in vivo, ICR mice; settings: lung, 5, 25, 50 and 100 mg/kg/day oral, daily for 4 weeks, vs BLM alone (set 1.0)
Experimental: as §1, §2, §3

[3] = system: Collagen 3 (Col3); assay: Col3 mRNA (real-time PCR) in bleomycin-induced pulmonary fibrosis mice; type: in vivo, ICR mice; settings: lung, 5, 25, 50 and 100 mg/kg/day oral, daily for 4 weeks, vs BLM alone (set 1.0)
Experimental: as §1, §2, §3

[4] = system: Collagen 4 (Col4); assay: Col4 mRNA (real-time PCR) in bleomycin-induced pulmonary fibrosis mice; type: in vivo, ICR mice; settings: lung, 5, 25, 50 and 100 mg/kg/day oral, daily for 4 weeks, vs BLM alone (set 1.0)
Experimental: as §1, §2, §3

[5] = system: lung hydroxyproline (collagen deposition); assay: Hydroxyproline assay of lung in bleomycin-induced IPF mice; type: in vivo, ICR mice; settings: 5, 25, 50 and 100 mg/kg/day oral, daily for 4 weeks, vs BLM alone
Experimental: as §1
(§4) Mice maintained under anesthesia with isoflurane were intravenously administered bleomycin 75 mg/kg in saline. The first administration of CHP hydrate or CHP hydrate+Zn was performed 30 min after bleomycin administration.
Collagen deposition was determined by measuring the total hydroxyproline (HYP) content, which was measured by a HYP assay kit according to the provided manufacturer's protocol. […] After neutralization with hydrochloric acid, the hydrolyzation products were diluted with distilled water, and assessed at 550 nm and expressed as ug/10 mg.

[6] = system: bleomycin (BLM)-induced pulmonary fibrosis; assay: Bleomycin-induced pulmonary fibrosis mouse model, overall effect; type: in vivo, ICR mice; settings: 5, 25, 50 and 100 mg/kg/day oral, 4 weeks; compared to BLM alone group; FIGS. 1-7
Experimental: as §1, with “analysis. Mice maintained under anesthesia with isoflurane were intravenously administered bleomycin 75 mg/kg in saline. The first administration of CHP hydrate or CHP hydrate+Zn was performed 30 min after bleomycin administration.” for “analysis.”

[7] = pKa of CHP hydrate material; type: physicochemical; settings: characterising feature (b)
[8] = system: fibronectin; assay: Fibronectin mRNA (real-time PCR) in bleomycin-induced pulmonary fibrosis mice; type: in vivo, ICR mice; settings: lung; 5, 25, 50 and 100 mg/kg/day oral, daily for 4 weeks; vs BLM alone (set 1.0)
Experimental: as §1, §2, §3

[9] = system: transforming growth factor-β (TGF-β); assay: TGF-β mRNA (real-time PCR) in bleomycin-induced pulmonary fibrosis mice; type: in vivo, ICR mice; settings: lung; 5, 25, 50 and 100 mg/kg/day oral, daily for 4 weeks; vs BLM alone (set 1.0)
Experimental: as §1, §2, §3

[10] = system: fibronectin; assay: Western blot of fibronectin in bleomycin-induced pulmonary fibrosis mice; type: in vivo, ICR mice; settings: CHP 5 mg/kg oral, daily for 4 weeks; compared to BLM group
Experimental: as §1, §4
20-30 μg of lysates were separated on BOLT™ 4-12% Bis-Tris Plus gels with MES running buffer and transferred to nitrocellulose membranes using TRANS-BLOT® TURBO™ Transfer System (Bio-Rad). […]

[11] = system: zinc absorption and uptake by muscle tissues and by intestinal segments; settings: Life Sciences 70 (2001), 337-348; cited from earlier work

pKa [7] | SMILES | relative αSMA mRNA expression level ([1]; hydrate) | relative Col1 mRNA expression level ([2]; hydrate) | relative Col3 mRNA expression level ([3]; hydrate) | relative Col4 mRNA expression level ([4]; hydrate) | lung hydroxyproline (HYP) content / accumulation of collagen in the lung ([5]; hydrate) | inflammation and fibrosis biomarkers [6] | relative fibronectin mRNA expression level [8] | relative αSMA mRNA expression level [1] | relative TGF-β mRNA expression level [9] | relative Col1 mRNA expression level [2] | relative Col3 mRNA expression level [3] | relative Col4 mRNA expression level [4] | lung hydroxyproline (HYP) content / accumulation of collagen in the lung [5] | fibronectin protein levels (Western blotting) [10] | zinc absorption and uptake [11]
~6.4 | O=C1N[C@@H](Cc2cnc[nH]2)C(=O)N2CCC[C@@H]12 [CHP hydrate, cyclo(-His-Pro) hydrate] | dramatically reduced | dramatically reduced | dramatically reduced | dramatically reduced | significantly decreased | significantly decreased | – | – | – | – | – | – | – | – | –
– | O=C1N[C@@H](Cc2cnc[nH]2)C(=O)N2CCC[C@@H]12 [CHP, Cyclo(-His-Pro)] | – | – | – | – | – | – | significantly reduces | significantly reduces | significantly reduces | significantly reduces | significantly reduces | significantly reduces | significantly reduces | dramatically reduced | enhanced
